Reference: the supplement of paper PMC10307832

Assays:
Experiment in all cases: relative viability (nuclei count vs DMSO), 5 days (fraction); higher = more cells survive
[1] = compound: CN(c1ncccc1CNc1nc(Nc2ccc3c(c2)CC(=O)N3)ncc1C(F)(F)F)S(C)(=O)=O + CC(=O)Nc1cccc(-n2c(=O)n(C3CC3)c(=O)c3c(Nc4ccc(I)cc4F)n(C)c(=O)c(C)c32)c1 [Trametinib] (partner 0.02 µM)
In short: (§1)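 Each reported value is a median over duplicate plates. It expresses relative viability: treated-well nuclei count divided by vehicle-well nuclei count. Lung cancer cell lines in 1536-well plates were dosed by pin tool a day after seeding, alone with one drug or with a fixed anchor-drug dose plus five library-drug doses (not always all listed) in √10 steps, and nuclei were counted after 5 days.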

[2] = compound: CN(c1ncccc1CNc1nc(Nc2ccc3c(c2)CC(=O)N3)ncc1C(F)(F)F)S(C)(=O)=O + CC1(C)CCC(c2ccc(Cl)cc2)=C(CN2CCN(c3ccc(C(=O)NS(=O)(=O)c4ccc(N[C@H](CCN5CCOCC5)CSc5ccccc5)c(S(=O)(=O)C(F)(F)F)c4)cc3)CC2)C1 [Navitoclax] (partner 0.5 µM)
In short: as §1

[3] = compound: CN(c1ncccc1CNc1nc(Nc2ccc3c(c2)CC(=O)N3)ncc1C(F)(F)F)S(C)(=O)=O + N=C(N)NC(=N)NCCc1ccccc1 [Phenformin] (partner 250 µM)
In short: as §1

[4] = compound: CN(c1ncccc1CNc1nc(Nc2ccc3c(c2)CC(=O)N3)ncc1C(F)(F)F)S(C)(=O)=O + Nc1nc2[nH]cc(CCc3ccc(C(=O)N[C@@H](CCC(=O)O)C(=O)O)cc3)c2c(=O)[nH]1 [Pemetrexed] (partner 0.2 µM)
In short: as §1

H3255
relative viability ([1]; first compound 0.01 µM): 0.688
relative viability ([1]; first compound 0.03162 µM): 0.675
relative viability ([1]; first compound 0.1 µM): 0.549
relative viability ([1]; first compound 0.3162 µM): 0.601
relative viability ([1]; first compound 1 µM): 0.576
relative viability ([2]; first compound 0.01 µM): 0.606
relative viability ([2]; first compound 0.03162 µM): 0.518
relative viability ([2]; first compound 0.1 µM): 0.616
relative viability ([2]; first compound 0.3162 µM): 0.475
relative viability ([2]; first compound 1 µM): 0.35
relative viability ([3]; first compound 0.01 µM): 0.34
relative viability ([3]; first compound 0.03162 µM): 0.339
relative viability ([3]; first compound 0.1 µM): 0.316
relative viability ([3]; first compound 0.3162 µM): 0.384
relative viability ([3]; first compound 1 µM): 0.342
relative viability ([4]; first compound 0.01 µM): 0.647
relative viability ([4]; first compound 0.03162 µM): 0.585
relative viability ([4]; first compound 0.1 µM): 0.541
relative viability ([4]; first compound 0.3162 µM): 0.614
relative viability ([4]; first compound 1 µM): 0.549

LXF-289
relative viability ([1]; first compound 0.01 µM): 0.706
relative viability ([1]; first compound 0.03162 µM): 0.693
relative viability ([1]; first compound 0.1 µM): 0.648
relative viability ([1]; first compound 0.3162 µM): 0.664
relative viability ([1]; first compound 1 µM): 0.633
relative viability ([2]; first compound 0.01 µM): 0.988
relative viability ([2]; first compound 0.03162 µM): 1.04
relative viability ([2]; first compound 0.1 µM): 0.962
relative viability ([2]; first compound 0.3162 µM): 0.929
relative viability ([2]; first compound 1 µM): 0.911
relative viability ([3]; first compound 0.01 µM): 0.542
relative viability ([3]; first compound 0.03162 µM): 0.55
relative viability ([3]; first compound 0.1 µM): 0.538
relative viability ([3]; first compound 0.3162 µM): 0.521
relative viability ([3]; first compound 1 µM): 0.525
relative viability ([4]; first compound 0.01 µM): 1.03
relative viability ([4]; first compound 0.03162 µM): 0.829
relative viability ([4]; first compound 0.1 µM): 0.864
relative viability ([4]; first compound 0.3162 µM): 0.804
relative viability ([4]; first compound 1 µM): 0.871

UMC-11
relative viability ([1]; first compound 0.01 µM): 0.762
relative viability ([1]; first compound 0.03162 µM): 0.761
relative viability ([1]; first compound 0.1 µM): 0.794
relative viability ([1]; first compound 0.3162 µM): 0.72
relative viability ([1]; first compound 1 µM): 0.539
relative viability ([2]; first compound 0.01 µM): 0.321
relative viability ([2]; first compound 0.03162 µM): 0.296
relative viability ([2]; first compound 0.1 µM): 0.313
relative viability ([2]; first compound 0.3162 µM): 0.297
relative viability ([2]; first compound 1 µM): 0.235
relative viability ([3]; first compound 0.01 µM): 0.333
relative viability ([3]; first compound 0.03162 µM): 0.366
relative viability ([3]; first compound 0.1 µM): 0.334
relative viability ([3]; first compound 0.3162 µM): 0.314
relative viability ([3]; first compound 1 µM): 0.262
relative viability ([4]; first compound 0.01 µM): 0.743
relative viability ([4]; first compound 0.03162 µM): 0.831
relative viability ([4]; first compound 0.1 µM): 0.82
relative viability ([4]; first compound 0.3162 µM): 0.799
relative viability ([4]; first compound 1 µM): 0.687

LC-2-ad
relative viability ([1]; first compound 0.01 µM): 0.876
relative viability ([1]; first compound 0.03162 µM): 0.932
relative viability ([1]; first compound 0.1 µM): 0.926
relative viability ([1]; first compound 0.3162 µM): 0.905
relative viability ([1]; first compound 1 µM): 0.793
relative viability ([2]; first compound 0.01 µM): 0.556
relative viability ([2]; first compound 0.03162 µM): 0.479
relative viability ([2]; first compound 0.1 µM): 0.433
relative viability ([2]; first compound 0.3162 µM): 0.364
relative viability ([2]; first compound 1 µM): 0.322
relative viability ([3]; first compound 0.01 µM): 0.52
relative viability ([3]; first compound 0.03162 µM): 0.544
relative viability ([3]; first compound 0.1 µM): 0.548
relative viability ([3]; first compound 0.3162 µM): 0.567
relative viability ([3]; first compound 1 µM): 0.524
relative viability ([4]; first compound 0.01 µM): 0.283
relative viability ([4]; first compound 0.03162 µM): 0.3
relative viability ([4]; first compound 0.1 µM): 0.274
relative viability ([4]; first compound 0.3162 µM): 0.285
relative viability ([4]; first compound 1 µM): 0.274

SK-MES-1
relative viability ([1]; first compound 0.01 µM): 0.562
relative viability ([1]; first compound 0.03162 µM): 0.532
relative viability ([1]; first compound 0.1 µM): 0.558
relative viability ([1]; first compound 0.3162 µM): 0.57
relative viability ([1]; first compound 1 µM): 0.513
relative viability ([2]; first compound 0.01 µM): 1.3
relative viability ([2]; first compound 0.03162 µM): 1.18
relative viability ([2]; first compound 0.1 µM): 1.21
relative viability ([2]; first compound 0.3162 µM): 1.2
relative viability ([2]; first compound 1 µM): 0.97
relative viability ([3]; first compound 0.01 µM): 0.698
relative viability ([3]; first compound 0.03162 µM): 0.63
relative viability ([3]; first compound 0.1 µM): 0.658
relative viability ([3]; first compound 0.3162 µM): 0.596
relative viability ([3]; first compound 1 µM): 0.513
relative viability ([4]; first compound 0.01 µM): 0.968
relative viability ([4]; first compound 0.03162 µM): 0.894
relative viability ([4]; first compound 0.1 µM): 0.882
relative viability ([4]; first compound 0.3162 µM): 0.904
relative viability ([4]; first compound 1 µM): 0.762

A-427
relative viability ([1]; first compound 0.01 µM): 0.722
relative viability ([1]; first compound 0.03162 µM): 0.791
relative viability ([1]; first compound 0.1 µM): 0.67
relative viability ([1]; first compound 0.3162 µM): 0.821
relative viability ([1]; first compound 1 µM): 0.741
relative viability ([2]; first compound 0.01 µM): 0.999
relative viability ([2]; first compound 0.03162 µM): 0.973
relative viability ([2]; first compound 0.1 µM): 1.02
relative viability ([2]; first compound 0.3162 µM): 0.973
relative viability ([2]; first compound 1 µM): 0.945
relative viability ([3]; first compound 0.01 µM): 0.337
relative viability ([3]; first compound 0.03162 µM): 0.315
relative viability ([3]; first compound 0.1 µM): 0.353
relative viability ([3]; first compound 0.3162 µM): 0.269
relative viability ([3]; first compound 1 µM): 0.291
relative viability ([4]; first compound 0.01 µM): 0.939
relative viability ([4]; first compound 0.03162 µM): 0.956
relative viability ([4]; first compound 0.1 µM): 0.932
relative viability ([4]; first compound 0.3162 µM): 0.955
relative viability ([4]; first compound 1 µM): 0.948

NCI-H322M
relative viability ([1]; first compound 0.01 µM): 0.432
relative viability ([1]; first compound 0.03162 µM): 0.518
relative viability ([1]; first compound 0.1 µM): 0.522
relative viability ([1]; first compound 0.3162 µM): 0.479
relative viability ([1]; first compound 1 µM): 0.51
relative viability ([2]; first compound 0.01 µM): 1.3
relative viability ([2]; first compound 0.03162 µM): 1.34
relative viability ([2]; first compound 0.3162 µM): 1.51
relative viability ([2]; first compound 1 µM): 1.26
relative viability ([3]; first compound 0.01 µM): 0.88
relative viability ([3]; first compound 0.03162 µM): 0.828
relative viability ([3]; first compound 0.1 µM): 0.827
relative viability ([3]; first compound 0.3162 µM): 0.89
relative viability ([3]; first compound 1 µM): 0.875
relative viability ([4]; first compound 0.01 µM): 0.615
relative viability ([4]; first compound 0.03162 µM): 0.606
relative viability ([4]; first compound 0.1 µM): 0.651
relative viability ([4]; first compound 0.3162 µM): 0.635
relative viability ([4]; first compound 1 µM): 0.714

HCC-366
relative viability ([1]; first compound 0.01 µM): 0.41
relative viability ([1]; first compound 0.03162 µM): 0.398
relative viability ([1]; first compound 0.1 µM): 0.296
relative viability ([1]; first compound 0.3162 µM): 0.303
relative viability ([1]; first compound 1 µM): 0.308
relative viability ([2]; first compound 0.01 µM): 1.03
relative viability ([2]; first compound 0.03162 µM): 1.18
relative viability ([2]; first compound 0.1 µM): 1.08
relative viability ([2]; first compound 0.3162 µM): 1.04
relative viability ([2]; first compound 1 µM): 0.927
relative viability ([3]; first compound 0.01 µM): 0.662
relative viability ([3]; first compound 0.03162 µM): 0.695
relative viability ([3]; first compound 0.1 µM): 0.614
relative viability ([3]; first compound 0.3162 µM): 0.577
relative viability ([3]; first compound 1 µM): 0.606
relative viability ([4]; first compound 0.01 µM): 0.219
relative viability ([4]; first compound 0.03162 µM): 0.172
relative viability ([4]; first compound 0.1 µM): 0.164
relative viability ([4]; first compound 0.3162 µM): 0.172
relative viability ([4]; first compound 1 µM): 0.186
